From BindingDB's records for doi:10.1021/jm3017656 (Vanderbilt University School of Medicine, 2013)

molecular target: T1, Androgen receptor (Homo sapiens, UniProt P10275); experiment: Agonist activity at androgen receptor (unknown origin) expressed in HeLa cells co-expressing PSA-(ARE)4-Luc13 assessed as induction of DHT-induced luciferase activity after […] by luciferase reporter gene assay
T1 sequence (P10275 whole entry): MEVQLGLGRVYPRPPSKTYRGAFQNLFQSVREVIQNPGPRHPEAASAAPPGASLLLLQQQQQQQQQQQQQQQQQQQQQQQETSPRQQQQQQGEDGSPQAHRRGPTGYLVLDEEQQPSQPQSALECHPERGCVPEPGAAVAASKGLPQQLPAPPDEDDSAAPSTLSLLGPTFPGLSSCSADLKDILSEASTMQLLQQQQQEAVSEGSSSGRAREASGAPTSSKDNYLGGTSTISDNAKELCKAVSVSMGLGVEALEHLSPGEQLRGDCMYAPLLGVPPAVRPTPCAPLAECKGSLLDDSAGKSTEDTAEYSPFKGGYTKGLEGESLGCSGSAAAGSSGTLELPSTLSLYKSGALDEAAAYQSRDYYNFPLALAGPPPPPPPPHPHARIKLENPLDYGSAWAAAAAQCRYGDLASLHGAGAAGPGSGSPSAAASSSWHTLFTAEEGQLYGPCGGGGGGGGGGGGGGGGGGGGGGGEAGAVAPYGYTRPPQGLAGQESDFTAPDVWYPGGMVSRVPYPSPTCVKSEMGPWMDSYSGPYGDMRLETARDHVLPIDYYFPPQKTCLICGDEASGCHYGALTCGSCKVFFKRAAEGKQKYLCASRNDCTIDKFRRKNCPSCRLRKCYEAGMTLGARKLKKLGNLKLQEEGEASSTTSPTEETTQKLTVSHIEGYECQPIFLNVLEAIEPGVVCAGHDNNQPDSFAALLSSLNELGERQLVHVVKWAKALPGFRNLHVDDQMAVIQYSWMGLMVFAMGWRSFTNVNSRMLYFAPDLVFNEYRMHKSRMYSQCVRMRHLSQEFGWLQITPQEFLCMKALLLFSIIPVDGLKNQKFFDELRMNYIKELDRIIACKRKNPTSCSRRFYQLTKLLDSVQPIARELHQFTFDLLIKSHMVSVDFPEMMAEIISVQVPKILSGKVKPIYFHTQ

| SMILES | EC50 [nM] |
| --- | --- |
| COc1ccc2c(c1)c(C)c(CCC(=O)NS(C)(=O)=O)n2C(=O)c1ccc(Cl)cc1 | 0.14 |
| COc1ccc2c(c1)c(C)c(CCC(=O)O)n2C(=O)c1ccc(Cl)cc1 | 0.15 |
| COc1ccc2c(c1)c(CC(=O)NS(=O)(=O)C(F)(F)F)cn2C(=O)c1ccc(Cl)cc1 | 0.1 |
| COc1ccc2c(c1)c(CC(=O)O)c(C)n2C(=O)c1ccc(Cl)cc1 [indometacin] | 0.14 |
